# Tested on: P388
# Experiment: Cytotoxicity against mouse P388 cells
# Format: functional
# Conditions: read-out: ED50 (the source's name)
structure (smiles),measurement,value
CC(=O)OCC(C)CCC[C@@H](C)[C@H]1CC[C@H]2[C@@H]3C[C@@H](O)[C@@]4(O)C[C@@H](O)CC[C@]4(C)[C@H]3CC[C@]12C (some centres not stated),EC50,2.4 µg/mL
CC(CO)CCC[C@@H](C)[C@H]1CC[C@H]2[C@@H]3C[C@@H](O)[C@@]4(O)C[C@@H](O)CC[C@]4(C)[C@H]3CC[C@]12C (some centres not stated),EC50,1.3 µg/mL
